Measurements from patent publication US20210253454A1, “MICELLAR DELIVERY METHOD” (EVONIK OPERATIONS GMBH, priority 2018, published 2021).

Columns and labels:
[1] = Oxidizer (PAA, hydrogen peroxide) concentration in treatment solution during biofilm test; type: physicochemical; conditions: initial 100 ppm
Method: (§1) Upon completion of the biofilm growth phase, the coupons were removed and rinsed by immersion into 30 mL dilution buffer. Coupons were placed into sterile centrifuge test tubes and 4 mL biocide or buffer were added. Then the tubes were vortexed on low speed to ensure complete coverage of the coupon. At the appropriate time, the biocide was poured off, and reserved for chemical analysis of PAA and hydrogen peroxide. Then, a 10 mL aliquot of chemical neutralizing Letheen broth with 0.5% sodium thiosulfate was added to each tube. One treated coupon from each treatment group was removed at final time point for visual analysis.
PAA and Hydrogen peroxide concentrations were monitored during the test by using Chemetrics test kits K-7913F and K-5543.
We further evaluated the biocidal activity of PAA-surfactant solutions on microbial biofilms using a CDC Biofilm reactor from BioSurface Technologies as described in Example 9. The three biocide solutions were also as described in Example 9, but the contact time was increased to about 72 hours under agitation. Additionally, for this test, the biocide aliquot was increased from the standard method amount of 4 mL up to 30 mL. These adjustments were made to more accurately simulate expected field conditions. The recovery was performed as described in the Example 8. […] Chemical analysis indicated only a slight reduction in concentrations of both PAA and hydrogen peroxide over the 72-hour time period.

[2] = tested on: Pseudomonas aeruginosa (ATCC 15442) biofilm; assay: Biocidal activity on biofilm, CDC Biofilm reactor, glass coupons, 1-4 hrs; type: cell-based; conditions: initial 100 ppm
Description: We evaluated the biocidal activity of PAA-surfactant solutions on microbial biofilms using a CDC Biofilm reactor from BioSurface Technologies. This reactor supplies a continuous flow of nutrient broth through a container that exposes bacteria growing on glass coupons to shear forces. The setup mimics at least two features typical for oilfield operations: a renewable nutrient source and shear forces applied to the biofilms. All reactor parts were cleaned with a solution of 1% Neutrad lab soap and rinsed well with deionized water, and allowed to dry prior to autoclaving on a 20 minutes gravity cycle to sterilize.
Pseudomonas aeruginosa (ATCC 15442) biofilm was grown for 48 hours in the biofilm reactor on glass coupons at 25° C. A solution containing 300 mg/L of sterile trypticase soy broth (TSB) was used as nutrient feed. 1 mL of the working inoculum of P. aeruginosa was added through the inoculation port. The first step was a 24 hours batch phase followed by 24 hours in continuous flow mode, when 100 mg/L TSB solution was pumped into the stirring reactor for about 24 hours at room temperature to create a matured biofilm on the coupon surfaces.
as §1
The compositions were diluted with deionized water before use, such that the initial concentration of PAA-surfactant active ingredient was 100 ppm.
In order to recover remaining viable bacteria from the coupons, the test tubes with coupons were vortexed for 30 s on highest setting, and then sonicated for 30 s at 45 kHz. This treatment was then repeated twice. After that, the broth was diluted serially into Butterfield's buffer, and the dilutions plated on 3M™ Petrifilm™ Aerobic Count Plates. The plates were incubated for 48 hours at 35° C., and then counted. Calculations were performed to obtain the Log10 CFU/mL of the solutions at each time point.

## CC(=O)OO [PAA, peracetic acid]
[1]; 1 hrs
  H2O2, ppm: 35 ppm
  PAA, ppm: 63 ppm
[1]; 2 hrs
  H2O2, ppm: 27 ppm
  PAA, ppm: 54 ppm
[1]; 4 hrs
  H2O2, ppm: 10 ppm
  PAA, ppm: 30 ppm
[2]; 1 hrs
  Log10 reduction: 1.4 Log10
  Log10 remaining: 7.8 Log10 CFU/mL
[2]; 2 hrs
  Log10 reduction: 2.2 Log10
  Log10 remaining: 7.0 Log10 CFU/mL
[2]; 4 hrs
  Log10 reduction: 3.1 Log10
  Log10 remaining: 6.1 Log10 CFU/mL
